Reference: ChEMBL document CHEMBL5303768, “Data for DCP probe TP-060” (2023)
pEC50, pIC50: −log10 of the molar value. The source made the active and inactive calls. The calls are words filed in the database; no cut-off is given here.

Assays:
[1] = biological target: T1, Ceramide glucosyltransferase (Homo sapiens, UniProt Q16739); experiment: Human GCS enzymatic assay; assay type: functional
T1 sequence (Q16739 whole entry): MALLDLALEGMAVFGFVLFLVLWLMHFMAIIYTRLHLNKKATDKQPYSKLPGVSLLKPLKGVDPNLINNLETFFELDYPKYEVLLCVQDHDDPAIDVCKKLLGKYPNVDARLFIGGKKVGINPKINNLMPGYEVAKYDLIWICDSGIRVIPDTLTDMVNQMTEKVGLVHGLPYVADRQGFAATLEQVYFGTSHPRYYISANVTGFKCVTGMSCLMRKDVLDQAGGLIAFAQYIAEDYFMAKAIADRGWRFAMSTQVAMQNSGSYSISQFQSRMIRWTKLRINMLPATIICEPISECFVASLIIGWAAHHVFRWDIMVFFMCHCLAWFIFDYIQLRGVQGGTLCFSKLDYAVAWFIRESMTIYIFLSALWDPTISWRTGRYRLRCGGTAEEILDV

[2] = biological target: Ceramide glucosyltransferase (Mus musculus, UniProt O88693); experiment: Mouse GCS enzymatic assay; assay type: functional
[3] = biological target: T1, Ceramide glucosyltransferase; experiment: Cellular GlcCer reduction; assay type: functional, tissue-based, fibroblast
[4] = biological target: 3',5'-cyclic-AMP phosphodiesterase 4D (Homo sapiens, UniProt Q08499); experiment: (§1) Safety47 Scan (DiscoverX - Eurofins)
[5] = biological target: 5-hydroxytryptamine receptor 1A (Homo sapiens, UniProt P08908); experiment: as §1
[6] = biological target: 5-hydroxytryptamine receptor 1B (Homo sapiens, UniProt P28222); experiment: as §1
[7] = biological target: 5-hydroxytryptamine receptor 2A (Homo sapiens, UniProt P28223); experiment: as §1
[8] = biological target: 5-hydroxytryptamine receptor 2B (Homo sapiens, UniProt P41595); experiment: as §1
[9] = biological target: 5-hydroxytryptamine receptor 3A (Homo sapiens, UniProt P46098); experiment: as §1
Acetylcholinesterase = Acetylcholinesterase (Homo sapiens, UniProt P22303); experiment: as §1
Adenosine receptor A2a = Adenosine receptor A2a (Homo sapiens, UniProt P29274); experiment: as §1
[10] = biological target: Alpha-1A adrenergic receptor (Homo sapiens, UniProt P35348); experiment: as §1
Chain of Alpha-1A adrenergic receptor (P35348 whole entry): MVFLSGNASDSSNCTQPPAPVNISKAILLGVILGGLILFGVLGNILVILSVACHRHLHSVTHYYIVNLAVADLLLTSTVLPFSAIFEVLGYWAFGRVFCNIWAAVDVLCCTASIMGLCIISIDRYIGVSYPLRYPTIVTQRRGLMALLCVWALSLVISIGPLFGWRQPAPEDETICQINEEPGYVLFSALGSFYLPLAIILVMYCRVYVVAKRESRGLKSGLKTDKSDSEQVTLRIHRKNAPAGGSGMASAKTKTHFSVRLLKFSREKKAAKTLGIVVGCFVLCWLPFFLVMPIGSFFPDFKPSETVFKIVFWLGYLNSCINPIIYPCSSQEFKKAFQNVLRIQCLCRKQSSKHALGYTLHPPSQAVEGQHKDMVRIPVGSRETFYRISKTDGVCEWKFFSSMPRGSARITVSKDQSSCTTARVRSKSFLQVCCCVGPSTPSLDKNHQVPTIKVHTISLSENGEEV

[11] = biological target: Alpha-2A adrenergic receptor (Homo sapiens, UniProt P08913); experiment: as §1
[12] = biological target: Amine oxidase [flavin-containing] A (Rattus norvegicus, UniProt P21396); experiment: as §1
Androgen receptor = Androgen receptor (Homo sapiens, UniProt P10275); experiment: as §1
Chain of Androgen receptor (P10275 whole entry): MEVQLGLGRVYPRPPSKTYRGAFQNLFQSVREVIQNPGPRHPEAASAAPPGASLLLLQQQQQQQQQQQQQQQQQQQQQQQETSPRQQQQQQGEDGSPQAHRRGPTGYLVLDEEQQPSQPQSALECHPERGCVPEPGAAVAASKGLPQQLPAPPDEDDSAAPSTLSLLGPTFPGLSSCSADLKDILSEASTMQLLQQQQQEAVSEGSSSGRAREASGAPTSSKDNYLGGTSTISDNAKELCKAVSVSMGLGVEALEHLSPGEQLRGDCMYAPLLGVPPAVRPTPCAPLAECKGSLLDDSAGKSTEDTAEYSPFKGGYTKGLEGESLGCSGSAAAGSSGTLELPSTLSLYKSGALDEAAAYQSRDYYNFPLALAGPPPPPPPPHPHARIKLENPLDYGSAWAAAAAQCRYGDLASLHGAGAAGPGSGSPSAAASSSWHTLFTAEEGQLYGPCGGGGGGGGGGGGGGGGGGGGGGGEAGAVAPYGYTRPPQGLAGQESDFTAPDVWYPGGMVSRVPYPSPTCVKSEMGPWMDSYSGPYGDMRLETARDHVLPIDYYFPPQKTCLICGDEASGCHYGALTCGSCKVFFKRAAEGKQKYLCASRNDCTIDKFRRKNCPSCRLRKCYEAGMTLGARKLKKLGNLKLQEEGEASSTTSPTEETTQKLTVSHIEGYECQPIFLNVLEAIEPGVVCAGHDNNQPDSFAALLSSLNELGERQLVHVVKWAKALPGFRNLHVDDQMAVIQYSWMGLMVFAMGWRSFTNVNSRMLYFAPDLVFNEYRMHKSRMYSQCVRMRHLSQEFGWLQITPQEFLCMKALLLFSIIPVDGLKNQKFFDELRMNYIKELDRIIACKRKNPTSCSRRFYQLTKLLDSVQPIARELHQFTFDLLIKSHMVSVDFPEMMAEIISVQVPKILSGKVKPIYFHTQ

[13] = biological target: Beta-1 adrenergic receptor (Homo sapiens, UniProt P08588); experiment: as §1
[14] = biological target: Beta-2 adrenergic receptor (Homo sapiens, UniProt P07550); experiment: as §1
Cannabinoid receptor 1 = Cannabinoid receptor 1 (Homo sapiens, UniProt P21554); experiment: as §1
Chain of Cannabinoid receptor 1 (P21554 whole entry): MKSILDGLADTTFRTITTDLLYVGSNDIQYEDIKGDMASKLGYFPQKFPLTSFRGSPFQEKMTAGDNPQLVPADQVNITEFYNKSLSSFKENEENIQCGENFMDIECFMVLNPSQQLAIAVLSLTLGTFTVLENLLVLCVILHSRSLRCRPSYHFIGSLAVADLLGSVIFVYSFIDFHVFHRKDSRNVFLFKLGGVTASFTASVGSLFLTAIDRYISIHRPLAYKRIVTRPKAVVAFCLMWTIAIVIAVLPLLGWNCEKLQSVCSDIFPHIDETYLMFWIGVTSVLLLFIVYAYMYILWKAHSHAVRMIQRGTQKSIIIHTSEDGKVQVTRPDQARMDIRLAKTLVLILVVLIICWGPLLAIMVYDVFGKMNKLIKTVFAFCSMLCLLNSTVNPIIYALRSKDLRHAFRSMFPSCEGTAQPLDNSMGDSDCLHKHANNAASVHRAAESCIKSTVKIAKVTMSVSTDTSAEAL

Cannabinoid receptor 2 = Cannabinoid receptor 2 (Homo sapiens, UniProt P34972); experiment: as §1
[15] = biological target: Cholecystokinin receptor type A (Homo sapiens, UniProt P32238); experiment: as §1
D(1A) dopamine receptor = D(1A) dopamine receptor (Homo sapiens, UniProt P21728); experiment: as §1
Chain of D(1A) dopamine receptor (P21728 whole entry): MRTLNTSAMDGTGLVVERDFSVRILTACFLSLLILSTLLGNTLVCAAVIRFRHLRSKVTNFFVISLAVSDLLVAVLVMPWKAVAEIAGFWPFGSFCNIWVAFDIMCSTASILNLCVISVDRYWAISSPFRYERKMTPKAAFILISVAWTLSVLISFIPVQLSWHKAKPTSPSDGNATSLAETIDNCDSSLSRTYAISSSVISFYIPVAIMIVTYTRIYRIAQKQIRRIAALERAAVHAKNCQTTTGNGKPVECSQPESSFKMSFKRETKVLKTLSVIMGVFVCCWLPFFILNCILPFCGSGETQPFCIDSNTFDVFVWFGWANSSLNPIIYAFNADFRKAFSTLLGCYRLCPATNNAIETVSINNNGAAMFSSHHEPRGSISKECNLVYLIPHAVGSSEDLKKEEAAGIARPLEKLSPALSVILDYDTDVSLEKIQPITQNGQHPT

D(2) dopamine receptor = D(2) dopamine receptor (Homo sapiens, UniProt P14416); experiment: as §1
Chain of D(2) dopamine receptor (P14416 whole entry): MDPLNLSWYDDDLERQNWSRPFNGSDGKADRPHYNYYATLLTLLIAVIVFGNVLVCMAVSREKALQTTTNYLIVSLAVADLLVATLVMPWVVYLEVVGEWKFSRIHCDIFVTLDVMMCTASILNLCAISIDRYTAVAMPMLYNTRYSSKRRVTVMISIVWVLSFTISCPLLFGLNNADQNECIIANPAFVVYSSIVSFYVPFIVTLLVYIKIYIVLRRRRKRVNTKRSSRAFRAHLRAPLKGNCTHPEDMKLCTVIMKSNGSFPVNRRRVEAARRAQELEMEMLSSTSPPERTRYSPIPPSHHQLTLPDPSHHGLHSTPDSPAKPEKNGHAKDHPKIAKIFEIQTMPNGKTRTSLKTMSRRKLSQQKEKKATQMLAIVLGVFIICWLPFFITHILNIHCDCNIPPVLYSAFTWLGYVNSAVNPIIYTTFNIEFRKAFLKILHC

[16] = biological target: Delta-type opioid receptor (Homo sapiens, UniProt P41143); experiment: as §1
Chain of Delta-type opioid receptor (P41143 whole entry): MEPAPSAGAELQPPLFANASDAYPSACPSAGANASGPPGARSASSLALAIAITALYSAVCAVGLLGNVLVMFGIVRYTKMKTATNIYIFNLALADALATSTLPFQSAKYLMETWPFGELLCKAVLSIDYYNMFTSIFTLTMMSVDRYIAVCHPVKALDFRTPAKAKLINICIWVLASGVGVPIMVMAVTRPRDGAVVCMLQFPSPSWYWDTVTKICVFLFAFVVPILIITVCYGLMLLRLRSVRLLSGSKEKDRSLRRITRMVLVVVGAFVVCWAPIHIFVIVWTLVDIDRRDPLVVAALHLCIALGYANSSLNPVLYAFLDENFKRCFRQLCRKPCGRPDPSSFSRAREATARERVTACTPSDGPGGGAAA

Endothelin-1 receptor = Endothelin-1 receptor (Homo sapiens, UniProt P25101); experiment: as §1
Glucocorticoid receptor = Glucocorticoid receptor (Homo sapiens, UniProt P04150); experiment: as §1
Histamine H1 receptor = Histamine H1 receptor (Homo sapiens, UniProt P35367); experiment: as §1
Histamine H2 receptor = Histamine H2 receptor (Homo sapiens, UniProt P25021); experiment: as §1
Insulin receptor = Insulin receptor (Homo sapiens, UniProt P06213); experiment: as §1
[17] = biological target: Kappa-type opioid receptor (Homo sapiens, UniProt P41145); experiment: as §1
Chain of Kappa-type opioid receptor (P41145 whole entry): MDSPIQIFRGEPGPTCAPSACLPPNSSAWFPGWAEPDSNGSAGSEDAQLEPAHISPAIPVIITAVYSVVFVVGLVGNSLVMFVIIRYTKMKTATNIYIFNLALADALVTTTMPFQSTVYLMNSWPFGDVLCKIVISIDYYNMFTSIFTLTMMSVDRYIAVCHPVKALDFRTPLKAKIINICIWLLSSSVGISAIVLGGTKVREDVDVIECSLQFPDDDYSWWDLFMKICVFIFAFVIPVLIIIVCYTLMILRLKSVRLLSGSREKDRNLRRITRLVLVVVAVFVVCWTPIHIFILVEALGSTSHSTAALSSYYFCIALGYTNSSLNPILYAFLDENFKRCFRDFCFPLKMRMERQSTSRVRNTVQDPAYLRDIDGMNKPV

Mu-type opioid receptor = Mu-type opioid receptor (Homo sapiens, UniProt P35372); experiment: as §1
Chain of Mu-type opioid receptor (P35372 whole entry): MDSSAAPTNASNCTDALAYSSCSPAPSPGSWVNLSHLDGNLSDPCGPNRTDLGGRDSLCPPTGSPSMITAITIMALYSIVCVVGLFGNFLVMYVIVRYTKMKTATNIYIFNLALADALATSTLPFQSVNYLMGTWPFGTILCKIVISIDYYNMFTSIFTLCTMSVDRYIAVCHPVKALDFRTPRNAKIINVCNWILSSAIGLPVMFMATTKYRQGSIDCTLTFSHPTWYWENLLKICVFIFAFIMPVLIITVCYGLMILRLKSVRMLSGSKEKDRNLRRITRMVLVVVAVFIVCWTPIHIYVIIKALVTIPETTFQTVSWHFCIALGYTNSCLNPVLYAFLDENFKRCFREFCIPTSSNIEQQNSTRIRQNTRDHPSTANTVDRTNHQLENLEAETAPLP

[18] = biological target: Muscarinic acetylcholine receptor M1 (Homo sapiens, UniProt P11229); experiment: as §1
[19] = biological target: Muscarinic acetylcholine receptor M2 (Homo sapiens, UniProt P08172); experiment: as §1
[20] = biological target: Muscarinic acetylcholine receptor M3 (Homo sapiens, UniProt P20309); experiment: as §1
Chain of Muscarinic acetylcholine receptor M3 (P20309 whole entry): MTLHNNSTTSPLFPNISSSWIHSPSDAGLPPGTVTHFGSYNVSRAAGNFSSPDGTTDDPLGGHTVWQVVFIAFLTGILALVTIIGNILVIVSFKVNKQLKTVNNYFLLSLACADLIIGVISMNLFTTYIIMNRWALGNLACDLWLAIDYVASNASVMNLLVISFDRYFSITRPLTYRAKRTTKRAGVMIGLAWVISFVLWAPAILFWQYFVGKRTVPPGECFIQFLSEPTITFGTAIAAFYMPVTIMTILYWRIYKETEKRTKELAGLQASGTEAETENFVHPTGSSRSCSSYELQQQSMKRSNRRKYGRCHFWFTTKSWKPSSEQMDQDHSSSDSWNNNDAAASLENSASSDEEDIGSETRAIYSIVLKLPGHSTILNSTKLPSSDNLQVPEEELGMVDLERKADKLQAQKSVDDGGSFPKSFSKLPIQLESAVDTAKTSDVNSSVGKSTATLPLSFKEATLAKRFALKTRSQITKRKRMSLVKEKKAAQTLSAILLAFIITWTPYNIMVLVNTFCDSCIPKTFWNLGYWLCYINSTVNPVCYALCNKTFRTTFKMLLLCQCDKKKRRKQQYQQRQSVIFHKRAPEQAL

[21] = biological target: Prostaglandin G/H synthase 1 (Homo sapiens, UniProt P23219); experiment: as §1
[22] = biological target: Prostaglandin G/H synthase 2 (Homo sapiens, UniProt P35354); experiment: as §1
[23] = biological target: Rho-associated protein kinase 1 (Homo sapiens, UniProt Q13464); experiment: as §1
[24] = biological target: Sodium channel protein type 5 subunit alpha (Homo sapiens, UniProt Q14524); experiment: as §1
[25] = biological target: Sodium-dependent dopamine transporter (Homo sapiens, UniProt Q01959); experiment: as §1
[26] = biological target: Sodium-dependent noradrenaline transporter (Homo sapiens, UniProt P23975); experiment: as §1
[27] = biological target: Tyrosine-protein kinase Lck (Homo sapiens, UniProt P06239); experiment: as §1
[28] = biological target: Vascular endothelial growth factor receptor 2 (Homo sapiens, UniProt P35968); experiment: as §1
Vasopressin V1a receptor = Vasopressin V1a receptor (Homo sapiens, UniProt P37288); experiment: as §1
Chain of Vasopressin V1a receptor (P37288 whole entry): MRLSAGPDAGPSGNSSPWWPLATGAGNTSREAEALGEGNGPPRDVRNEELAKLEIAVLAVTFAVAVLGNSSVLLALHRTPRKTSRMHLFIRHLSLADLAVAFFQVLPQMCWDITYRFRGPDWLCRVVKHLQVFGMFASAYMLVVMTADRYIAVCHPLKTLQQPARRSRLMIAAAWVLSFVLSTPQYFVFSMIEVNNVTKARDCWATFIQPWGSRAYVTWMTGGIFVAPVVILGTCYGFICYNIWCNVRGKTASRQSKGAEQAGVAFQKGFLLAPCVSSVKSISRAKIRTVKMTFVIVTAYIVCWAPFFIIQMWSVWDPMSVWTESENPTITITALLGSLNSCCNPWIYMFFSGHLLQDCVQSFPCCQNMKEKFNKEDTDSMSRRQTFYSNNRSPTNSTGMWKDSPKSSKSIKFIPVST

[29] = biological target: Voltage-gated inwardly rectifying potassium channel KCNH2 (Homo sapiens, UniProt Q12809); experiment: as §1
[30] = biological target: cGMP-inhibited 3',5'-cyclic phosphodiesterase 3A (Homo sapiens, UniProt Q14432); experiment: as §1
[31] = as §1; design: species or system Rattus norvegicus
[32] = biological target: Voltage-dependent L-type calcium channel subunit alpha-1C (Homo sapiens, UniProt Q13936); experiment: as §1; design: species or system Rattus norvegicus; settings: target entry is the homologue from another species
[33] = biological target: Neuronal acetylcholine receptor; alpha4/beta2 (Homo sapiens, UniProt P17787+P43681); experiment: as §1; assay type: protein-complex assay
[34] = biological target: Voltage-gated potassium channel, IKs; KCNQ1(Kv7.1)/KCNE1(MinK) (Homo sapiens, UniProt P15382+P51787); experiment: as §1; assay type: protein-complex assay
[35] = biological target: Glutamate NMDA receptor; GRIN1/GRIN2B (Homo sapiens, UniProt Q05586+Q13224); experiment: as §1; assay type: protein-complex assay, Rattus norvegicus; settings: target entry is the homologue from another species

With COc1cccc(-c2nccc3c2CN(c2ccccc2)C3=O)c1 the IC50 [1] was > 100 µM (not active), the IC50 [2] was > 100 µM (not active) and the EC50 [3] was > 10 µM (not active).

With CC(C)(O)c1ccc(N2Cc3c(ccnc3-c3ccc(F)cc3OCC(F)(F)F)C2=O)cc1 the EC50 [3] was 0.0076 µM (active), the pIC50 [4] was less than 5.00 and the pEC50 [5] was less than 5.00. It also gave a pIC50 [5] of less than 5.00, a pEC50 [6] of 5.55 and a pIC50 [6] of less than 5.00. It also gave a pEC50 [7] of less than 5.00, a pIC50 [7] of less than 5.00 and a pEC50 [8] of less than 5.00. For the same compound, the pIC50 [8] was less than 5.00, the pEC50 [9] was less than 5.00 and the pIC50 [9] was less than 5.00. The pIC50 (Acetylcholinesterase) was less than 5.00, the pEC50 (Adenosine receptor A2a) was less than 5.00 and the pIC50 (Adenosine receptor A2a) was less than 5.00. For the same compound, the pEC50 [10] was less than 5.00, the pIC50 [10] was less than 5.00 and the pEC50 [11] was less than 5.00. For the same compound, the pIC50 [11] was less than 5.00, the pIC50 [12] was less than 5.00 and the pEC50 (Androgen receptor) was less than 5.00. It also gave a pIC50 (Androgen receptor) of less than 5.00, a pEC50 [13] of less than 5.00 and a pIC50 [13] of less than 5.00. It also gave a pEC50 [14] of less than 5.00, a pIC50 [14] of less than 5.00 and a pEC50 (Cannabinoid receptor 1) of less than 5.00. It also gave a pIC50 (Cannabinoid receptor 1) of less than 5.00, a pEC50 (Cannabinoid receptor 2) of less than 5.00 and a pIC50 (Cannabinoid receptor 2) of less than 5.00. It also gave a pEC50 [15] of less than 5.00, a pIC50 [15] of less than 5.00 and a pEC50 (D(1A) dopamine receptor) of less than 5.00. It also gave a pIC50 (D(1A) dopamine receptor) of less than 5.00, a pEC50 (D(2) dopamine receptor) of less than 5.00 and a pIC50 (D(2) dopamine receptor) of less than 5.00. For the same compound, the pEC50 [16] was less than 5.00, the pIC50 [16] was less than 5.00 and the pEC50 (Endothelin-1 receptor) was less than 5.00. For the same compound, the pIC50 (Endothelin-1 receptor) was less than 5.00, the pEC50 (Glucocorticoid receptor) was less than 5.00 and the pIC50 (Glucocorticoid receptor) was less than 5.00. The pEC50 (Histamine H1 receptor) was less than 5.00, the pIC50 (Histamine H1 receptor) was less than 5.00 and the pEC50 (Histamine H2 receptor) was less than 5.00. For the same compound, the pIC50 (Histamine H2 receptor) was less than 5.00, the pIC50 (Insulin receptor) was less than 5.00 and the pEC50 [17] was less than 5.00. For the same compound, the pIC50 [17] was less than 5.00, the pEC50 (Mu-type opioid receptor) was less than 5.00 and the pIC50 (Mu-type opioid receptor) was less than 5.00. It also gave a pEC50 [18] of less than 5.00, a pIC50 [18] of less than 5.00 and a pEC50 [19] of less than 5.00. It also gave a pIC50 [19] of less than 5.00, a pEC50 [20] of less than 5.00 and a pIC50 [20] of less than 5.00. For the same compound, the pIC50 [21] was less than 5.00, the pIC50 [22] was less than 5.00 and the pIC50 [23] was less than 5.00. It also gave a pIC50 [24] of less than 5.00, a pIC50 [25] of less than 5.00 and a pIC50 [26] of less than 5.00. It also gave a pIC50 [27] of less than 5.00, a pIC50 [28] of less than 5.00 and a pEC50 (Vasopressin V1a receptor) of less than 5.00. For the same compound, the pIC50 (Vasopressin V1a receptor) was less than 5.00, the pIC50 [29] was less than 5.00 and the pIC50 [30] was less than 5.00. It also gave a pEC50 [31] of less than 5.00, a pIC50 [31] of less than 5.00 and a pIC50 [32] of less than 5.00. It also gave a pEC50 [33] of less than 5.00, a pIC50 [33] of 5.19 and a pEC50 [34] of less than 5.00. The pIC50 [34] was less than 5.00, the pEC50 [35] was less than 5.00 and the pIC50 [35] was less than 5.00.
